Results as given in ChEMBL document CHEMBL3885861, “Open TG-GATES”.

Species on record: Rattus norvegicus
Assay: Open TG-GATES - Regimen: Single
Assay type: toxicity, organism-based, Sprague-Dawley
Set-up: regimen Single, gender Male, age 6 weeks
Conditions: in vivo, ip, 0.3 mg/kg, route intraperitoneal injection, dose 300 ug/Kg, dose level High; for APTT / Bas / Eos / Fbg / Hb / Ht / Lym / MCH / MCHC / MCV / Mono / Neu / PT / Plat / RBC / Ret / WBC: tissue Blood; for KIDNEY_L / KIDNEY_R / KIDNEY_TOTAL: tissue Kidney; for LIVER: tissue Liver; for A/G / ALP / ALT / AST / BUN / CRE / Ca / Cl / DBIL / GLC / IP / K / LDH / Na / PL / RALB / TBIL / TC / TG / TP / gamma-GTP: tissue Plasma

SMILES: CC(=O)N[C@H]1[C@@H](O[C@@H]2O[C@H](CC(O)[C@H]3O[C@@H](n4ccc(=O)[nH]c4=O)[C@H](O)[C@@H]3O)[C@H](O)[C@H](O)[C@H]2NC(=O)/C=C/CC(C)C)O[C@H](CO)[C@@H](N)[C@@H]1O (some centres not stated) [TUNICAMYCIN]
- TERMINAL_BW (3 h): 222.1 g
- APTT (3 h): 21.6 s
- Bas (3 h): 0%
- Eos (3 h): 0.4%
- Fbg (3 h): 288.4 mg/dL
- Hb (3 h): 13.1 g/dL
- Ht (3 h): 40.3%
- Lym (3 h): 80.8%
- MCH (3 h): 20.8 pg
- MCHC (3 h): 32.5%
- MCV (3 h): 64 fL
- Mono (3 h): 3%
- Neu (3 h): 14.6%
- PT (3 h): 15.5 s
- Plat (3 h): 108.9 x10_4/uL
- RBC (3 h): 630.4 x10_4/ul
- Ret (3 h): 8%
- WBC (3 h): 89.8 x10_2/uL
- KIDNEY_L (3 h): 1 g
- KIDNEY_R (3 h): 1 g
- KIDNEY_TOTAL (3 h): 2 g
- LIVER (3 h): 10.1 g
- A/G (3 h): 1.2
- ALP (3 h): 1378 IU/L
- ALT (3 h): 38.4 IU/L
- AST (3 h): 70.6 IU/L
- BUN (3 h): 13.6 mg/dL
- CRE (3 h): 0.1 mg/dL
- Ca (3 h): 10.9 mg/dL
- Cl (3 h): 106.6 meq/L
- DBIL (3 h): 0 mg/dL
- GLC (3 h): 167.8 mg/dL
- IP (3 h): 8.4 mg/dL
- K (3 h): 4.4 meq/L
- LDH (3 h): 154 IU/L
- Na (3 h): 140.4 meq/L
- PL (3 h): 127.4 mg/dL
- RALB (3 h): 2.9 g/dL
- TBIL (3 h): 0.016 mg/dL
- TC (3 h): 68.6 mg/dL
- TG (3 h): 71 mg/dL
- TP (3 h): 5.3 g/dL
- gamma-GTP (3 h): 1.4 IU/L
- TERMINAL_BW (6 h): 219.8 g
- APTT (6 h): 21.5 s
- Bas (6 h): 0%
- Eos (6 h): 0.8%
- Fbg (6 h): 309.6 mg/dL
- Hb (6 h): 13.3 g/dL
- Ht (6 h): 41%
- Lym (6 h): 70.8%
- MCH (6 h): 20.8 pg
- MCHC (6 h): 32.5%
- MCV (6 h): 64 fL
- Mono (6 h): 3.2%
- Neu (6 h): 24.2%
- PT (6 h): 15.9 s
- Plat (6 h): 118.2 x10_4/uL
- RBC (6 h): 640.4 x10_4/ul
- Ret (6 h): 7.6%
- WBC (6 h): 84.7 x10_2/uL
- KIDNEY_L (6 h): 1 g
- KIDNEY_R (6 h): 1 g
- KIDNEY_TOTAL (6 h): 1.9 g
- LIVER (6 h): 9.1 g
- A/G (6 h): 1.2
- ALP (6 h): 1426.6 IU/L
- ALT (6 h): 41.4 IU/L
- AST (6 h): 73.6 IU/L
- BUN (6 h): 12.6 mg/dL
- CRE (6 h): 0.1 mg/dL
- Ca (6 h): 10.7 mg/dL
- Cl (6 h): 107 meq/L
- DBIL (6 h): 0.002 mg/dL
- GLC (6 h): 173.8 mg/dL
- IP (6 h): 9.1 mg/dL
- K (6 h): 4.5 meq/L
- LDH (6 h): 175.8 IU/L
- Na (6 h): 141 meq/L
- PL (6 h): 125 mg/dL
- RALB (6 h): 2.9 g/dL
- TBIL (6 h): 0.012 mg/dL
- TC (6 h): 71 mg/dL
- TG (6 h): 50.4 mg/dL
- TP (6 h): 5.4 g/dL
- gamma-GTP (6 h): 1.2 IU/L
- TERMINAL_BW (9 h): 212.4 g
- APTT (9 h): 20.8 s
- Bas (9 h): 0%
- Eos (9 h): 0.4%
- Fbg (9 h): 307 mg/dL
- Hb (9 h): 13.5 g/dL
- Ht (9 h): 41.4%
- Lym (9 h): 73.8%
- MCH (9 h): 20.9 pg
- MCHC (9 h): 32.7%
- MCV (9 h): 63.7 fL
- Mono (9 h): 2.8%
- Neu (9 h): 21.4%
- PT (9 h): 16.4 s
- Plat (9 h): 121.3 x10_4/uL
- RBC (9 h): 649.2 x10_4/ul
- Ret (9 h): 7.1%
- WBC (9 h): 84 x10_2/uL
- KIDNEY_L (9 h): 1 g
- KIDNEY_R (9 h): 1 g
- KIDNEY_TOTAL (9 h): 1.9 g
- LIVER (9 h): 8.8 g
- A/G (9 h): 1.2
- ALP (9 h): 1397.6 IU/L
- ALT (9 h): 43.4 IU/L
- AST (9 h): 86.6 IU/L
- BUN (9 h): 17.4 mg/dL
- CRE (9 h): 0.1 mg/dL
- Ca (9 h): 10.5 mg/dL
- Cl (9 h): 107.4 meq/L
- DBIL (9 h): 0 mg/dL
- GLC (9 h): 164.8 mg/dL
- IP (9 h): 9.4 mg/dL
- K (9 h): 4.4 meq/L
- LDH (9 h): 185.6 IU/L
- Na (9 h): 140.8 meq/L
- PL (9 h): 114.8 mg/dL
- RALB (9 h): 3 g/dL
- TBIL (9 h): 0.018 mg/dL
- TC (9 h): 68.2 mg/dL
- TG (9 h): 22.2 mg/dL
- TP (9 h): 5.4 g/dL
- gamma-GTP (9 h): 1 IU/L
- TERMINAL_BW (24 h): 228.7 g
- APTT (24 h): 23.4 s
- Bas (24 h): 0%
- Eos (24 h): 1.2%
- Fbg (24 h): 288 mg/dL
- Hb (24 h): 13.2 g/dL
- Ht (24 h): 41%
- Lym (24 h): 76.2%
- MCH (24 h): 20.1 pg
- MCHC (24 h): 32.2%
- MCV (24 h): 62.4 fL
- Mono (24 h): 3.6%
- Neu (24 h): 18.4%
- PT (24 h): 16.5 s
- Plat (24 h): 122.4 x10_4/uL
- RBC (24 h): 658.2 x10_4/ul
- Ret (24 h): 7.2%
- WBC (24 h): 97.7 x10_2/uL
- KIDNEY_L (24 h): 1 g
- KIDNEY_R (24 h): 1 g
- KIDNEY_TOTAL (24 h): 1.9 g
- LIVER (24 h): 10.8 g
- A/G (24 h): 1.3
- ALP (24 h): 1621.2 IU/L
- ALT (24 h): 55 IU/L
- AST (24 h): 86.6 IU/L
- BUN (24 h): 14.8 mg/dL
- CRE (24 h): 0.2 mg/dL
- Ca (24 h): 10.4 mg/dL
- Cl (24 h): 106.4 meq/L
- DBIL (24 h): 0 mg/dL
- GLC (24 h): 174.4 mg/dL
- IP (24 h): 7.5 mg/dL
- K (24 h): 4.5 meq/L
- LDH (24 h): 181.4 IU/L
- Na (24 h): 141.2 meq/L
- PL (24 h): 120.8 mg/dL
- RALB (24 h): 3 g/dL
- TBIL (24 h): 0.012 mg/dL
- TC (24 h): 58.4 mg/dL
- TG (24 h): 70.8 mg/dL
- TP (24 h): 5.3 g/dL
- gamma-GTP (24 h): 1.6 IU/L
